In brackets after ≈: the same amount, converted by molar mass. Where two headings read alike, the source gives them in different places.
How the values were obtained:
Format in all cases: cell-based
[1] = system: C. krusei 141/03 (candidosis); assay: Robotic MIC assay, Candida strains (Example 2); details: Pichia kudriavzevii, 48 h, Mueller-Hinton broth, read-out: Minimum Inhibitory Concentration (MIC)
In short: (§1)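 Robotic microdilution MIC, Mueller-Hinton broth, 48 h static culture at 34° C, alone or combined with 2, 6 or 10% OligoG CF-5/20.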

[2] = system: C. tropicalis T2.2 (oral); assay: Robotic MIC assay, Candida strains (Example 2); details: Candida tropicalis, 48 h, Mueller-Hinton broth, read-out: Minimum Inhibitory Concentration (MIC)
In short: as §1

[3] = system: Candida albicans, CCUG 39343; assay: Robotic MIC assay (Example 1); details: for MIC: Candida albicans, CCUG39343, 24 h, 24 hours, read-out: Minimum Inhibitory Concentration (MIC); for reduction in MIC values: comparing 0 and 10% G-block
Protocol: (§2) A robotic MIC Assay was performed as follows. OligoG CF-5/20 were dissolved in medium (Mueller-Hinton broth or M19 broth depending on experiment) to 1.25 times of the desired assay concentrations (2, 6 and 10%). The antifungal agents under test were dissolved in medium without OligoG CF-5/20 and in medium with OligoG CF-5/20 at a concentration of 1.25 times the highest desired assay concentrations. For experiments where the effect of adding different concentrations of Na^+ was investigated, NaCl was dissolved in medium to the desired concentrations (10, 30 and 50 mM).
(§3) Two-fold serial dilutions of antifungal agents were made in medium with different concentrations of OligoG CF-5/20, and the solutions were placed in four parallel wells in Nunc 384-well micro plates (30 μl per well in Nunc 242757 microplates). A group of 8 wells with no addition of antifungal agents for each OligoG CF-5/20 concentration was included on each microplate as growth reference. To each well in the 384-well assay plates was added 7.5 μl of medium inoculated with a frozen stock culture of Candida albicans (strain CCUG 39343).
The frozen stock culture was prepared by growing the Candida strain at 34° C. for 48 h on YM-agar. 1-3 colonies from the plates were grown in 6 ml YM-broth at 34° C. for 14 h before freezing in 6% glycerol at −80° C. Each batch of frozen stock culture was then characterized in separate growth experiments using Mueller-Hinton or M19 broth to determine the minimum amount of inoculum giving satisfactory growth after 48 h under the conditions relevant for the MIC assay. This inoculation procedure is used in order to reduce day to day variation in bioassays.
(§4) The micro plates were placed in plastic bags and incubated without shaking at 34° C. The optical density at 600 nm in the microwells was measured after approximately 13, 18, 24 and 34 hours of incubation, and the relative growth yield in each well was calculated based on the growth in the reference groups.

[4] = system: Candida albicans; assay: Robotic MIC assay with asthma/COPD medicaments (Example 5); details: Mueller-Hinton broth; for MIC: Candida albicans, 24 h
Protocol: as §2, §3, §4
The robotic assay described in Example 1 was employed in this Example. […] The concentration utilized for the different components were based on information from Manocha et al. (2006).
In this assay only Mueller-Hinton broth was used since this is the medium specified for standardized MIC assays (Jorgensen et al., 1999).

With CN(C/C=C/C#CC(C)(C)C)Cc1cccc2ccccc12 [Terbinafine, terbinafine] the MIC ([1]; 0% OligoG) was over 32 µg/mL, the MIC ([1]; 2% OligoG) was over 32 µg/mL and the MIC ([1]; 6% OligoG) was over 32 µg/mL. For the same compound, the MIC ([1]; 10% OligoG) was over 32 µg/mL, the MIC ([2]; 0% OligoG) was over 32 µg/mL and the MIC ([2]; 2% OligoG) was over 32 µg/mL. The MIC ([2]; 6% OligoG) was over 32 µg/mL and the MIC ([2]; 10% OligoG) was 32 µg/mL (≈ 110 µM).
Compound C[C@@H]1[C@H](O)[C@@H](C)/C=C/C=C/C=C/C=C/C=C/C=C/C=C/[C@H](O[C@@H]2O[C@H](C)[C@@H](O)[C@H](N)[C@@H]2O)C[C@@H]2O[C@](O)(C[C@@H](O)C[C@@H](O)[C@H](O)CC[C@@H](O)C[C@@H](O)CC(=O)O[C@H]1C)C[C@H](O)[C@H]2C(=O)O [Amphotericin B, amphotericin B] has an MIC ([3]; M19, NaCl 0 mM) of 1.2 µg/mL (≈ 1.3 µM), an MIC ([3]; M19, NaCl 10 mM) of 0.3 µg/mL (≈ 0.325 µM) and an MIC ([3]; M19, NaCl 30 mM) of 0.3 µg/mL (≈ 0.325 µM). It also gave an MIC ([3]; M19, NaCl 50 mM) of 0.3 µg/mL (≈ 0.325 µM), an MIC ([3]; M19, OligoG CF 5/20 0%) of 1.2 µg/mL (≈ 1.3 µM) and an MIC ([3]; M19, OligoG CF 5/20 2%) of 0.3 µg/mL (≈ 0.325 µM). For the same compound, the MIC ([3]; M19, OligoG CF 5/20 6%) was 0.075 µg/mL (≈ 0.0812 µM), the MIC ([3]; M19, OligoG CF 5/20 10%) was 0.0375 µg/mL (≈ 0.0406 µM) and the MIC ([3]; Mueller-Hinton, NaCl 0 mM) was 0.15 µg/mL (≈ 0.162 µM). For the same compound, the MIC ([3]; Mueller-Hinton, NaCl 10 mM) was 0.15 µg/mL (≈ 0.162 µM), the MIC ([3]; Mueller-Hinton, NaCl 30 mM) was 0.15 µg/mL (≈ 0.162 µM) and the MIC ([3]; Mueller-Hinton, NaCl 50 mM) was 0.15 µg/mL (≈ 0.162 µM). It also gave an MIC ([3]; Mueller-Hinton, OligoG CF 5/20 0%) of 0.15 µg/mL (≈ 0.162 µM), an MIC ([3]; Mueller-Hinton, OligoG CF 5/20 2%) of 0.15 µg/mL (≈ 0.162 µM) and an MIC ([3]; Mueller-Hinton, OligoG CF 5/20 6%) of 0.0375 µg/mL (≈ 0.0406 µM). The MIC ([3]; Mueller-Hinton, OligoG CF 5/20 10%) was 0.0094 µg/mL (≈ 0.0102 µM), the “reduction in MIC values” ([3]; M19) was 32 × and the “reduction in MIC values” ([3]; Mueller-Hinton) was 16 ×. For the same compound, the “effect of addition of OligoG CF-5/20 on MIC values” ([3]; both media tested (M19, Mueller-Hinton)) was “reduction in MIC values”, the MIC ([4]; no medicament added, G-block 0%) was 0.0938 µg/mL (≈ 0.102 µM) and the MIC ([4]; no medicament added, G-block 2%) was 0.0938 µg/mL (≈ 0.102 µM). The MIC ([4]; no medicament added, G-block 6%) was 0.0469 µg/mL (≈ 0.0508 µM), the MIC ([4]; no medicament added, G-block 10%) was 0.0234 µg/mL (≈ 0.0253 µM) and the MIC ([4]; with Budesonide 0.01 mM, G-block 0%) was 0.0938 µg/mL (≈ 0.102 µM). For the same compound, the MIC ([4]; with Budesonide 0.01 mM, G-block 2%) was 0.0938 µg/mL (≈ 0.102 µM), the MIC ([4]; with Budesonide 0.01 mM, G-block 6%) was 0.0469 µg/mL (≈ 0.0508 µM) and the MIC ([4]; with Budesonide 0.01 mM, G-block 10%) was 0.0469 µg/mL (≈ 0.0508 µM). The MIC ([4]; with Formoterol 0.5 mM (2% DMSO), G-block 0%) was 0.0469 µg/mL (≈ 0.0508 µM), the MIC ([4]; with Formoterol 0.5 mM (2% DMSO), G-block 2%) was 0.0469 µg/mL (≈ 0.0508 µM) and the MIC ([4]; with Formoterol 0.5 mM (2% DMSO), G-block 6%) was 0.0234 µg/mL (≈ 0.0253 µM). For the same compound, the MIC ([4]; with Formoterol 0.5 mM (2% DMSO), G-block 10%) was 0.0117 µg/mL (≈ 0.0127 µM), the MIC ([4]; with Ipratropium bromide 0.01 mM, G-block 0%) was 0.0938 µg/mL (≈ 0.102 µM) and the MIC ([4]; with Ipratropium bromide 0.01 mM, G-block 2%) was 0.0469 µg/mL (≈ 0.0508 µM). It also gave an MIC ([4]; with Ipratropium bromide 0.01 mM, G-block 6%) of 0.0234 µg/mL (≈ 0.0253 µM), an MIC ([4]; with Ipratropium bromide 0.01 mM, G-block 10%) of 0.0117 µg/mL (≈ 0.0127 µM) and an MIC ([4]; with Ipratropium bromide 1 mM, G-block 0%) of 0.188 µg/mL (≈ 0.203 µM). It also gave an MIC ([4]; with Ipratropium bromide 1 mM, G-block 2%) of 0.0938 µg/mL (≈ 0.102 µM), an MIC ([4]; with Ipratropium bromide 1 mM, G-block 6%) of 0.0469 µg/mL (≈ 0.0508 µM) and an MIC ([4]; with Ipratropium bromide 1 mM, G-block 10%) of 0.0234 µg/mL (≈ 0.0253 µM). For the same compound, the MIC ([4]; with Salbutamol 0.01 mM, G-block 0%) was 0.0469 µg/mL (≈ 0.0508 µM), the MIC ([4]; with Salbutamol 0.01 mM, G-block 2%) was 0.0469 µg/mL (≈ 0.0508 µM) and the MIC ([4]; with Salbutamol 0.01 mM, G-block 6%) was 0.0234 µg/mL (≈ 0.0253 µM). It also gave an MIC ([4]; with Salbutamol 0.01 mM, G-block 10%) of 0.0117 µg/mL (≈ 0.0127 µM), an MIC ([4]; with Salbutamol 1 mM, G-block 0%) of 0.0469 µg/mL (≈ 0.0508 µM) and an MIC ([4]; with Salbutamol 1 mM, G-block 2%) of 0.0469 µg/mL (≈ 0.0508 µM). For the same compound, the MIC ([4]; with Salbutamol 1 mM, G-block 6%) was 0.0234 µg/mL (≈ 0.0253 µM), the MIC ([4]; with Salbutamol 1 mM, G-block 10%) was 0.0117 µg/mL (≈ 0.0127 µM) and the “reduction in MIC values” ([4]; addition of 10% OligoG CF-5/20 compared to without OligoG CF-5/20) was 4 ×.

From US20150126467A1, “USE OF ALGINATE OLIGOMERS TO ENHANCE THE EFFECTS OF ANTIFUNGAL AGENTS” (AlgiIPharma AS, priority 2011, published 2015)
